In PubChem BioAssay AID330 (DTP/NCI, 2004):
Where “and” joins values, the source holds several entries; their conditions need not be identical. Equal entries are not always repeated. Inconclusive results and toxic doses are left out.

Test system: P388 leukemia ip, CD2F1 mice, survival T/C
Assay: NCI In Vivo Anticancer Drug Screen. Data for tumor model P388 Leukemia (intraperitoneal) in CD2F1 (CDF1) mice
Details: endpoint: median survival time, higher = longer survival
Method in brief: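 Mice carrying the transplanted tumor received test compound or vehicle. Survival was recorded in each group, and the value is the treated-group measurement divided by that of the vehicle-treated control group.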

[1] = dose: 60.0 mg/kg/injection, schedule: Q01DX005 (ip), vehicle: saline with Tween-80
[2] = dose: 120.0 mg/kg/injection, schedule: Q01DX005 (ip), vehicle: saline with Tween-80
[3] = dose: 12.5 mg/kg/injection, schedule: Q01DX005 (ip), vehicle: saline with Tween-80
[4] = dose: 50.0 mg/kg/injection, schedule: Q01DX009 (ip), vehicle: saline with Tween-80
[5] = dose: 100.0 mg/kg/injection, schedule: Q01DX009 (ip), vehicle: saline with Tween-80
[6] = dose: 200.0 mg/kg/injection, schedule: Q01DX009 (ip), vehicle: saline with Tween-80

## CCC(=O)c1cc(Cl)ccc1O
dose: 37.5 mg/kg/injection, schedule: Q01DX001 (ip), vehicle: other
  T/C: 104 % of control
dose: 75.0 mg/kg/injection, schedule: Q01DX001 (ip), vehicle: other
  T/C: 100 % of control
dose: 150.0 mg/kg/injection, schedule: Q01DX001 (ip), vehicle: other
  T/C: 100 % of control

## CC(=O)NC(N)=NC#N
dose: 50.0 mg/kg/injection, schedule: Q01DX001 (ip), vehicle: saline
  T/C: 98 % of control
dose: 100.0 mg/kg/injection, schedule: Q01DX001 (ip), vehicle: saline
  T/C: 100 % of control
dose: 200.0 mg/kg/injection, schedule: Q01DX001 (ip), vehicle: saline
  T/C: 96 % of control
dose: 400.0 mg/kg/injection, schedule: Q01DX001 (ip), vehicle: saline
  T/C: 103 % of control

## COc1ccc(/C=C/C(=N/Nc2ccccc2)C(C)CN(C)C)cc1 (centres undefined)
[1]
  T/C: 101 % of control
[2]
  T/C: 95 % of control

## N/C(=N\O)c1nc2c(N)nc(-c3ccccc3)nc2nc1N
dose: 37.5 mg/kg/injection, schedule: Q01DX009 (ip), vehicle: saline with Tween-80
  T/C: 109 % of control
dose: 75.0 mg/kg/injection, schedule: Q01DX009 (ip), vehicle: saline with Tween-80
  T/C: 95 % of control
dose: 150.0 mg/kg/injection, schedule: Q01DX009 (ip), vehicle: saline with Tween-80
  T/C: 97 % of control

## COc1ccc(/C=N\NC(=O)CNC(=O)Nc2cccc(C(F)(F)F)c2)cc1OC
dose: 3.13 mg/kg/injection, schedule: Q01DX009 (ip), vehicle: saline with Tween-80
  T/C: 112 % of control
dose: 6.25 mg/kg/injection, schedule: Q01DX009 (ip), vehicle: saline with Tween-80
  T/C: 108 % of control
dose: 12.5 mg/kg/injection, schedule: Q01DX009 (ip), vehicle: saline with Tween-80
  T/C: 91 % of control

## CC1(C)CC(Nc2ncnc3c2ncn3C2OC(CO)C(O)C2O)CC(C)(C)N1O (centres undefined)
dose: 50.0 mg/kg/injection, schedule: Q01DX009 (ip), vehicle: saline
  T/C: 96 % of control
dose: 100.0 mg/kg/injection, schedule: Q01DX009 (ip), vehicle: saline
  T/C: 95 % of control
dose: 200.0 mg/kg/injection, schedule: Q01DX009 (ip), vehicle: saline
  T/C: 94 % of control

## O=NNc1ccccn1
dose: 0.78 mg/kg/injection, schedule: Q01DX009 (ip), vehicle: saline
  T/C: 106 % of control
dose: 1.5 mg/kg/injection, schedule: Q01DX009 (ip), vehicle: saline
  T/C: 100 % of control
dose: 1.5 mg/kg/injection, schedule: Q01DX009 (ip), vehicle: water
  T/C: 103 % of control
dose: 1.56 mg/kg/injection, schedule: Q01DX005 (ip), vehicle: water
  T/C: 103 % of control and 106 % of control and 112 % of control
dose: 1.56 mg/kg/injection, schedule: Q01DX009 (ip), vehicle: saline + alcohol
  T/C: 108 % of control
dose: 1.59 mg/kg/injection, schedule: Q01DX009 (ip), vehicle: water
  T/C: 119 % of control
dose: 3.0 mg/kg/injection, schedule: Q01DX009 (ip), vehicle: saline
  T/C: 118 % of control
dose: 3.0 mg/kg/injection, schedule: Q01DX009 (ip), vehicle: water
  T/C: 121 % of control
dose: 3.12 mg/kg/injection, schedule: Q01DX009 (ip), vehicle: saline + alcohol
  T/C: 123 % of control
dose: 12.0 mg/kg/injection, schedule: Q01DX009 (ip), vehicle: water
  T/C: 151 % of control and 163 % of control
dose: 25.0 mg/kg/injection, schedule: Q01DX009 (ip), vehicle: saline + alcohol
  T/C: 175 % of control

## C(=N\N=C1c2ccccc2-c2ccccc21)/c1ccc2ccc3cccc4ccc1c2c34
[3]
  T/C: 93 % of control
dose: 25.0 mg/kg/injection, schedule: Q01DX005 (ip), vehicle: saline with Tween-80
  T/C: 95 % of control
dose: 30.0 mg/kg/injection, schedule: Q01DX005 (ip), vehicle: saline with Tween-80
  T/C: 88 % of control
dose: 50.0 mg/kg/injection, schedule: Q01DX005 (ip), vehicle: saline with Tween-80
  T/C: 91 % of control
[1]
  T/C: 86 % of control
[2]
  T/C: 88 % of control
dose: 240.0 mg/kg/injection, schedule: Q01DX005 (ip), vehicle: saline with Tween-80
  T/C: 89 % of control

## CC(=O)Nc1nc(C(C)(C)C)c([N+](=O)[O-])s1
[4]
  T/C: 95 % of control
[5]
  T/C: 104 % of control
[6]
  T/C: 95 % of control

## CC1(C)CCC(C2=CC(=O)c3c(O)ccc(O)c3C2=O)O1 (centres undefined)
dose: 3.12 mg/kg/injection, schedule: Q01DX005 (ip), vehicle: saline with Tween-80
  T/C: 103 % of control
dose: 6.25 mg/kg/injection, schedule: Q01DX005 (ip), vehicle: saline with Tween-80
  T/C: 108 % of control
[3]
  T/C: 99 % of control

## NC(=O)c1[nH]c(N=Nc2ccccc2)nc1N
dose: 100.0 mg/kg/injection, schedule: Q04DX003 (ip), vehicle: Klucel (hydroxypropylcellulose) (HPC)
  T/C: 102 % of control
dose: 200.0 mg/kg/injection, schedule: Q04DX003 (ip), vehicle: Klucel (hydroxypropylcellulose) (HPC)
  T/C: 102 % of control
dose: 400.0 mg/kg/injection, schedule: Q04DX003 (ip), vehicle: Klucel (hydroxypropylcellulose) (HPC)
  T/C: 103 % of control

## CCCCCCCCCCCCCCCCCCCCCCCCCCCCCCO
dose: 25.0 mg/kg/injection, schedule: Q01DX009 (ip), vehicle: saline with Tween-80
  T/C: 86 % of control
[4]
  T/C: 101 % of control
[5]
  T/C: 96 % of control
[6]
  T/C: 92 % of control
